{
  "source": "the SangsterLogP compilation",
  "key": {"[1]": {"test": "method code SF-GLC, from DOI: 10.1002/etc.5620080910"}, "[2]": {"test": "method code SF-AS, from Ganga, L. X. J. S., & Zun-Yaob, L. H. W. (2009). Determination of lgKow and QSPR Study on Some Fluorobenzene Derivatives. Jiegou Huaxue, 28(10)."}, "[3]": {"test": "method code SF-AS, from DOI: 10.1016/0006-2952(74)90620-0, PMID: 4822742", "conditions": "pH 7.4"}, "[4]": {"test": "method code SF-GLC, from DOI: 10.1002/jps.2600620103, PMID: 4734195"}, "[5]": {"test": "not given", "remark": "listed apart in the source"}, "[6]": {"test": "not given", "remark": "listed apart in the source"}, "[7]": {"test": "method code SF, from Korenman, I. M.; Klyukvina, T. D. (1972). Extraction of methylfurfural from aqueous solutions. Zh. Prikl. Khim., 45(11)2697-2699."}, "[8]": {"test": "method code SF, from Brown, J.; Yu, N.; Cory, M.; Bicknell, R.; Taylor, D. (1978). In vivo evaluation of the radiosensitizing and cytotoxic properties of newly synthesized electron-affinic drugs. 3, 206-211."}, "[9]": {"test": "method code SF-AS, from DOI: 10.1016/s0022-3565(25)24763-2, PMID: 2019981", "conditions": "pH 7.4"}, "[10]": {"test": "not given", "remark": "listed apart in the source"}, "[11]": {"test": "not given", "remark": "listed apart in the source"}, "[12]": {"test": "method code SF, from DOI: 10.1021/jm020367+, PMID: 12502371"}, "[13]": {"test": "method code SF-AS, from Kosanovic, D.; Dumanovic, D.; Jovanovic, J. (1988). Solubility in octanol And the octanol-water partition coefficients of some 4(5)- and 5-nitroimidazoles. 53(10)559-563."}, "[14]": {"test": "method code SF-GLC, from DOI: 10.1271/bbb1961.46.2755"}, "[15]": {"test": "method code SF-AS, from DOI: 10.2116/analsci.8.761", "conditions": "pH 6.0"}, "[16]": {"test": "method code SF-GLC, from DOI: 10.1021/ac00241a023"}, "[17]": {"test": "method code SF, from DOI: 10.1021/bk-1995-0606.ch003"}, "[18]": {"test": "not given", "remark": "listed apart in the source"}, "[19]": {"test": "not given", "remark": "listed apart in the source"}, "[20]": {"test": "not given", "remark": "listed apart in the source"}, "[21]": {"test": "not given", "remark": "listed apart in the source"}, "[22]": {"test": "not given", "remark": "listed apart in the source"}, "[23]": {"test": "method code SF-AS, from Halmekoski, J.; Hannikainen, H. (1964). Rm values of hydroxy-substituted benzoic acids and partition coefficients of the acids between water and aliphatic alcohols. Suomen Kemist. B, 37, 221-226."}, "[24]": {"test": "not given", "remark": "listed apart in the source"}, "[25]": {"test": "not given", "remark": "listed apart in the source"}, "[26]": {"test": "method code SF-HPLC, from DOI: 10.1002/jps.2600750520, PMID: 3735094", "conditions": "pH 4.0"}},
  "data": [
    {"compound": "CC(CCl)OC(C)CCl", "note": "(configuration not stated)", "values": [
      {"measurement": "logP", "value": 2.48}
    ]},
    {"compound": "O=[N+]([O-])c1ccc(Cl)cc1Cl", "values": [
      {"measurement": "logP", "setting": "[1]", "value": 3.05}
    ]},
    {"compound": "Fc1ccc(F)cc1", "values": [
      {"measurement": "logP", "setting": "[2]", "value": 2.26}
    ]},
    {"compound": "CC1=NS(=O)(=O)c2cc(Cl)ccc2N1", "values": [
      {"measurement": "logD", "setting": "[3]", "value": 1.08}
    ]},
    {"compound": "CC(C)C(C)O", "note": "(configuration not stated)", "values": [
      {"measurement": "logP", "setting": "[4]", "value": 1.28}
    ]},
    {"compound": "Nc1cccc(O)c1", "values": [
      {"measurement": "logP", "setting": "[5]", "value": 0.28}
    ]},
    {"compound": "COCC(C)OC(C)=O", "note": "(configuration not stated)", "values": [
      {"measurement": "logP", "setting": "[6]", "value": 0.56}
    ]},
    {"compound": "Cc1ccc(C=O)o1", "values": [
      {"measurement": "logP", "setting": "[7]", "value": 0.67}
    ]},
    {"compound": "CC(O)Cn1ccnc1[N+](=O)[O-]", "note": "(configuration not stated)", "values": [
      {"measurement": "logP", "setting": "[8]", "value": -0.16}
    ]},
    {"compound": "CCc1occc(=O)c1O", "values": [
      {"measurement": "logD", "setting": "[9]", "value": 0.6}
    ]},
    {"compound": "S=C=Nc1ccc(Br)cc1", "values": [
      {"measurement": "logP", "setting": "[10]", "value": 4.03}
    ]},
    {"compound": "COC(=O)c1ccco1", "values": [
      {"measurement": "logP", "setting": "[11]", "value": 1.08}
    ]},
    {"compound": "Nc1n[n+]([O-])c2cc(Cl)ccc2[n+]1[O-]", "values": [
      {"measurement": "logP", "setting": "[12]", "value": 0.46}
    ]},
    {"compound": "CC(C)c1nc([N+](=O)[O-])c[nH]1", "values": [
      {"measurement": "logP", "setting": "[13]", "value": 0.9}
    ]},
    {"compound": "CCCS(=O)(=O)CCC", "values": [
      {"measurement": "logP", "setting": "[14]", "value": 0.39}
    ]},
    {"compound": "OCc1ccc(O)cc1", "values": [
      {"measurement": "logD", "setting": "[15]", "value": 0.48}
    ]},
    {"compound": "Clc1cccc(Cl)c1Cl", "values": [
      {"measurement": "logP", "setting": "[16]", "value": 4.05}
    ]},
    {"compound": "CCc1ccc[nH]1", "values": [
      {"measurement": "logP", "setting": "[17]", "value": 1.59}
    ]},
    {"compound": "Nc1cc(N=O)ccc1O", "values": [
      {"measurement": "logP", "setting": "[18]", "value": 0.03}
    ]},
    {"compound": "O=[N+]([O-])c1cc(Cl)ccc1Cl", "values": [
      {"measurement": "logP", "setting": "[19]", "value": 3.09}
    ]},
    {"compound": "O=C(O)c1ccc([N+](=O)[O-])cc1", "values": [
      {"measurement": "logP", "setting": "[20]", "value": 1.9}
    ]},
    {"compound": "Nc1cc(Cl)c(S(N)(=O)=O)cc1S(N)(=O)=O", "values": [
      {"measurement": "logP", "setting": "[21]", "value": -0.56}
    ]},
    {"compound": "CON=C(C#N)C(=O)NCC(=O)O", "values": [
      {"measurement": "logP", "setting": "[22]", "value": -0.58}
    ]},
    {"compound": "O=C(O)c1cc(O)ccc1O", "values": [
      {"measurement": "logP", "setting": "[23]", "value": 1.12}
    ]},
    {"compound": "Cc1ccc([N+](=O)[O-])cc1N", "values": [
      {"measurement": "logP", "setting": "[24]", "value": 1.87}
    ]},
    {"compound": "Oc1ccc(O)cc1", "values": [
      {"measurement": "logP", "setting": "[25]", "value": 0.61}
    ]},
    {"compound": "O=C(OCCCl)n1cc(F)c(=O)[nH]c1=O", "values": [
      {"measurement": "logD", "setting": "[26]", "value": 0.02}
    ]}
  ]
}
